# Data reported in the supplement of paper PMC10307832.
# Columns and labels:
# Assay in all cases: relative viability (nuclei count vs DMSO), 5 days (fraction); higher = more cells survive
# [1] = compound: C1=CC=C(C(=C1)C2=CC=C(C=C2)C3=CSC4=C3C(=C(C(=O)N4)C#N)O)O + CC(C)C[C@H](NC(=O)[C@H](Cc1ccccc1)NC(=O)c1cnccn1)B(O)O [Bortezomib] (partner 0.002 µM)
# Procedure, shortened: (§1)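 Lung cancer cell lines were pin-tool dosed in 1536-well plates on the day after seeding, with either a lone drug or a fixed anchor-drug dose plus five library-drug doses (not always all listed) in √10 steps. Nuclei were counted on 4× images after 5 days. Relative viability is the ratio of treated-well to vehicle-well nuclei counts, with each value a median of duplicate plates.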
# [2] = compound: C1=CC=C(C(=C1)C2=CC=C(C=C2)C3=CSC4=C3C(=C(C(=O)N4)C#N)O)O + C[C@]1(O)C[C@@H](c2nc(-c3ccc4ccc(-c5ccccc5)nc4c3)c3c(N)nccn32)C1 [Linsitinib] (partner 1 µM)
# Procedure, shortened: as §1
# [3] = compound: C1=CC=C(C(=C1)C2=CC=C(C=C2)C3=CSC4=C3C(=C(C(=O)N4)C#N)O)O + N=C(N)NC(=N)NCCc1ccccc1 [Phenformin] (partner 250 µM)
# Procedure, shortened: as §1
# [4] = compound: O=C(CCCCCCNC(=O)c1cnc(N(c2ccccc2)c2ccccc2)nc1)NO [Ricolinostat] + Cc1nc(Nc2ncc(C(=O)Nc3c(C)cccc3Cl)s2)cc(N2CCN(CCO)CC2)n1 [Dasatinib] (partner 0.075 µM)
# Procedure, shortened: as §1
Cell Line,relative viability ([1]; first compound 0.08 µM),relative viability ([1]; first compound 0.253 µM),relative viability ([1]; first compound 0.8 µM),relative viability ([1]; first compound 2.53 µM),relative viability ([1]; first compound 8 µM),relative viability ([2]; first compound 0.08 µM),relative viability ([2]; first compound 0.253 µM),relative viability ([2]; first compound 0.8 µM),relative viability ([2]; first compound 2.53 µM),relative viability ([2]; first compound 8 µM),relative viability ([3]; first compound 0.08 µM),relative viability ([3]; first compound 0.253 µM),relative viability ([3]; first compound 0.8 µM),relative viability ([3]; first compound 2.53 µM),relative viability ([3]; first compound 8 µM),relative viability ([4]; first compound 0.08 µM),relative viability ([4]; first compound 0.253 µM),relative viability ([4]; first compound 0.8 µM),relative viability ([4]; first compound 2.53 µM)
LXF-289,0.974,0.973,1,1,0.986,0.978,0.961,0.986,1,0.973,0.491,0.538,0.553,0.507,0.485,0.193,0.274,0.272,0.306
NCI-H23,0.884,1.11,1.19,1.07,0.558,0.614,0.58,0.679,0.603,0.402,0.782,0.85,0.872,0.754,0.583,0.667,0.786,0.698,0.47
NCI-H322M,1.13,1.22,1.24,1.34,1.11,1.07,0.587,0.874,0.909,0.787,0.69,0.751,0.776,0.871,0.865,–,0.275,0.26,0.255
NCI-H441,–,0.534,–,0.757,0.441,0.583,0.748,0.617,0.746,0.552,0.706,1.01,1.03,0.927,0.633,–,0.586,0.601,0.538
NCI-H460,–,0.828,1.34,1.41,0.624,–,0.81,0.682,1.06,0.657,0.165,0.557,0.427,0.561,0.107,0.319,0.459,0.444,0.42
NCI-H520,0.496,0.494,0.903,0.506,0.492,0.712,1.08,1.26,1.21,0.829,0.254,0.535,0.757,0.542,0.467,–,0.313,0.211,0.231
NCI-H596,0.715,1.63,1.2,0.926,0.933,0.967,1.17,1.13,1.1,0.733,0.629,0.695,0.741,0.724,0.571,0.586,0.553,0.613,0.494
NCI-H647,1.01,1.16,1.09,0.919,0.649,1.17,1.1,1.21,1.17,1.08,0.285,0.615,0.586,0.555,0.349,0.109,0.144,0.181,0.246
NCI-H650,0.583,0.833,0.772,0.936,0.617,0.857,0.817,0.737,0.914,0.716,0.474,0.531,0.448,0.465,0.44,0.36,0.463,0.365,0.314
NCI-H661,1.05,0.71,0.697,0.678,0.718,0.589,0.607,0.561,0.487,0.471,0.31,0.298,0.257,0.254,0.298,0.795,0.88,0.889,0.731
NCI-H727,0.643,1.18,0.986,0.714,0.747,0.242,0.238,0.284,0.237,0.237,0.484,0.668,0.416,0.491,0.514,0.352,0.479,0.47,0.452
NCI-H838,0.776,0.816,1.03,0.715,0.634,0.738,1.22,1.08,0.988,1.04,0.316,0.641,0.538,0.54,0.543,–,0.318,0.287,0.452
NCI-H1355,0.981,1.31,1.25,1.12,1.19,0.981,0.746,0.824,0.758,0.625,0.396,0.487,0.445,0.422,0.396,0.588,0.69,0.645,0.62
NCI-H1437,0.539,0.665,0.603,0.406,0.322,0.668,1.37,1.03,1.21,0.81,0.297,0.452,0.237,0.303,0.26,0.398,0.511,0.337,0.279
NCI-H1563,0.543,0.953,0.909,0.785,0.759,1.16,1.06,1.11,1.23,1.31,0.63,0.714,0.702,0.622,0.679,0.472,0.461,0.441,0.494
NCI-H1651,0.866,0.914,1.01,1.02,0.834,0.807,0.9,1.02,0.868,0.788,0.272,0.336,0.398,0.365,0.278,0.414,0.544,0.428,0.4
